According to US8017585B2, “CXCR4 antagonist and use thereof” (priority 2002, dated 2011):
Bridge positions count the residues as written; N and C are the ends. Square brackets hold non-standard residues; d marks the D form. Peptide text beside a SMILES is read from it. * marks the point of attachment. 2Nal = N[C@@H](Cc1ccc2ccccc2c1)C(=O)O; Benzoyl(4-F) = O=C(c1ccc(F)cc1)*; Cit = NC(=O)NCCC[C@H](N)C(=O)O

Legend:
CXCR4 receptor = target: T1, CXCR4 receptor (Homo sapiens, UniProt P61073); assay: Inhibition of 125I-CXCL12 binding to CXCR4 receptor on Jurkat cells; conditions: Table 1, 125I-CXCL12, 1 hour at room temperature, compounds as acetate salt, read-out: IC50 (nM), inhibitory activity against CXCL12 binding to CXCR4 receptor
T1 construct: 50 μL of Jurkat human T-cell leukemia cells (6×10^6 cells/mL) suspended in buffer; endogenous in cells; host or cells: Jurkat human T-cell leukemia cells
T1 sequence (P61073 whole entry): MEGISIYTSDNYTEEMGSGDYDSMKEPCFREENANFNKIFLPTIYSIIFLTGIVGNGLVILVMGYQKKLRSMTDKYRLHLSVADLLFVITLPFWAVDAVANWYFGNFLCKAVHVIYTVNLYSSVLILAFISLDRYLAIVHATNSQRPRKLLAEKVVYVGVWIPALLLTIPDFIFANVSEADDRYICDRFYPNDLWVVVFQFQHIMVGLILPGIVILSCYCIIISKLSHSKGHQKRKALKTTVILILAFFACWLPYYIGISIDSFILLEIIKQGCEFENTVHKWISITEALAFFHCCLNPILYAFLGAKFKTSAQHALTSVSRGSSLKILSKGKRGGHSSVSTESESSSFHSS
Description: After reaction, suction was made toward the reaction solution by 96 well GF/C filter plate, and each well's radioactivity was measured by top count. As the radioactivity index of 100% when the test compound was not added, and 0% when 100 nM of non-radioisotope-labeled CXCL12 was added, the inhibitory activity of each test compound was measured.

[1] = test system: MDA-MB-231 human breast cancer cells; assay: Anti-metastatic activity, MDA-MB-231 cells implanted i.v. in SCID mice, lung metastasis; type: in vivo, CB-17 SCID mice; conditions: 18.2 mg/kg/day by Alzet osmotic pump, 28 days after implantation
Description: MDA-MB-231 human breast cancer cells (10^6 cells) were implanted intravenously into the tails of five week-old female CB-17 SCID mice (Crea Japan, Inc.). 4Fbenzoyl-TN-14003 was prepared at 80 mg/mL in physiologic saline solution, was included into sustained-releasing osmotic pumps (Alzet pump, Alza Corporation, usable for 2 week sustained-release; the dose was equivalent to 18.2 mg/kg/day), and was intradermally loaded to the backs of the mice on the date immediately preceding the implantation. Further, 14 days after the implantation, Alzet pumps containing an equal dose of the drug were additionally loaded. To the control group, Alzet pumps injected with physiological saline solution were additionally loaded. 28 days after the implantation, the mice were dissected, about 2 mL of 0.2% Evans' Blue solution was injected through windpipes, and lungs were stained. The lungs were taken out, soaked in Bouin's liquid, stained and fixed. […] In the lungs of the control group, the yellow stained portions were evenly seen, and lung metastasis was observed. On the other hand, in the 4Fbenzoyl-TN-14003 administration group, yellow stained specimens were less.

[2] = test system: mouse DTH reaction induced by SRBC; assay: Mouse delayed-type hypersensitivity reaction (DTH) induced by SRBC; type: in vivo, BALB/c mice; conditions: Alzet osmotic pump
Description: Preserved blood of sheep was purchased from Nippon Bio-Supp. Center. The preserved sheep blood was cleansed twice in physiological saline solution, suspended in physiological saline solution, and used as sheep red blood cells (SRBC). As OD541 nm value of oxyhemoglobin at the time of hemolyzation of 1.0×10^9 cells/mL of the SRBC suspension by 14 parts distilled water is considered to be nearly 0.700, SRBC density was accordingly fixed.
2×10^7 cells/50 μl of SRBC were administered subcutaneously to the ankles of the left hindlimbs of BALB/c mice (male, 6 week-old, Charles River Japan, Inc.) and sensitized. After 5 days, 10^8 cells/50 μl of SRBC were administered subcutaneously to the ankles of the right hindlimbs and DTH reaction was induced. Immediately prior to and 24 hours after the induction of antigens, the thickness of the ankles of the right hindlimbs was measured by a digital micrometer (Mitutoyo Corporation CD-15B), and the increase (mm) in the thickness of ankles was adopted as the indicator of DTH reaction.
4Fbenzoyl-TN14003 was dissolved to PBS, and continuously administered using Alzet osmotic pumps (Alza, 0.5 μL/hr, 7 days persistent type). The osmotic pumps were implanted intradermally to the backs under ether anesthesia on the day before the sensitization. As the control, pumps injected with PBS were similarly implanted. 4F-benzoyl-TN14003 was administered at the doses of 4.8, 24 and 120 μg/day.
Data were expressed as mean value±standard margin of error (n=7). By Williams test, p≦0.025 was valued as significant.

[3] = test system: mouse collagen-induced arthritis; assay: Mouse collagen-induced arthritis; type: in vivo, DBA/1JN mouse; conditions: 120 μg/day, Alzet osmotic pump, 2 weeks
Description: FK-506 was purified by a known method (Kino T. et al., J. Antibiot., 1987 40(9): 1249-55). […] For 2 weeks after the additional immunization, body weights and hindlimb thickness were measured and arthritis scoring was made. Arthritis scores were scored at 0-3 points of each limb, and evaluated by the total of the same (12 points being the full points; 0, normal; 1, mild swelling or swelling of a single digit; 2, moderate swelling or swelling of plural digits; 3, severe swelling). Two weeks after the immunization, four limbs and sera were picked. After coat blocking bovine type II collagen (10 μg/mL PBS solution) on the immunoplate, 100 μL of 1000 times diluted mouse serum was added, and kept at room temperature for 2 hours. After cleansing, anti-mouse IgG2a antibody (1000 times dilution) was added. After cleansing, TMB was added, kept at room temperature for 30 minutes, H2SO4 of equal amount was added, and A450 nm was measured. Indomethacin (1 mg/kg), methotrexate (3 mg/kg) and FK-506 (10 mg/kg) were suspended to 0.5% methyl cellulose, and orally administered every day for 2 weeks from the day of the additional immunization at the dose of 0.1 mL/10 g body weight. 0.5% methyl cellulose solution of the equal dose was orally administered to the control group. 4Fbenzoyl-TN14003 was dissolved to PBS, and continuously administered using Alzet osmotic pumps (Alza, 0.5 μL/hr 2 weeks). The osmotic pumps were implanted intradermally to the backs of the mice under ether anesthesia on the day before the additional immunization. As the control, pumps injected with PBS were similarly implanted. Evaluation of each drug was made for the value obtained 2 weeks after the additional immunization. Data were expressed as mean value±standard margin of error (n=8-12). Comparison between 2 groups was made by Student's t-test, p≦0.05 was valued as significant. Multiple comparison was made by Dunnett test, p≦0.05 was valued as significant.

mouse splenocytes = conditions: read-out: IC50 value, inhibition of SDF-1-induced migration of mouse splenocytes; SDF-1α 100 ng/mL; 2.5 hours
Description: Spleens were isolated from BALB/c mice (male, Charles River Japan, Inc.), converted to single cell suspensions, and splenocytes were prepared by crushing red blood cells.
SDF-1α (Peprotech, final concentration 100 ng/mL) was added to the lower layer of Transwell (pore size 5 μm), 1×10^6/well of the cells (100 μL) were added to the insert, and reacted at 37° C. for 2.5 hours. The cells were incubated with the drug at 37° C. for 30 minutes. Migrating reaction was made in the RPMI-1640 culture media containing 20 mmol/L HEPES, 0.5% BSA. The number of the cells migrated to the lower layer was counted by Coulter Counter. Similarly to the preceding clause, the inhibitory rate against the migration by the drug of each concentration and IC50 value were calculated.

For `N=C(N)NCCC[C@H](NC(=O)[C@@H]1CSSC[C@H](NC(=O)[C@H](Cc2ccc3ccccc3c2)NC(=O)[C@H](CCCNC(=N)N)NC(=O)[C@H](CCCNC(=N)N)NC(=O)c2ccc(F)cc2)C(=O)N[C@@H](Cc2ccc(O)cc2)C(=O)N[C@@H](CCCNC(N)=O)C(=O)N[C@@H](CCCCN)C(=O)N[C@H](CCCCN)C(=O)N2CCC[C@H]2C(=O)N[C@@H](Cc2ccc(O)cc2)C(=O)N[C@@H](CCCNC(=N)N)C(=O)N[C@@H](CCCNC(N)=O)C(=O)N1)C(N)=O` [4F-benzoyl-TN14003, 4F-benzoyl-Arg-Arg-Nal-Cys-Tyr-Cit-Lys-DLys-Pro-Tyr-Arg-Cit-Cys-Arg-NH2] ({Benzoyl(4-F)}-RR[2Nal]CY[Cit]K[dK]PYR[Cit]CR-NH2; disulfide 4-13), the IC50 (CXCR4 receptor) was 0.99 nM, the “lung metastasis (eye observation of metastatic focus)” value [1] was “the metastasis was inhibited” and the “inhibitory rate of footpad edema (DTH)” value ([2]; 4.8 μg/day) was 9%. The “inhibitory rate of footpad edema (DTH)” value ([2]; 24 μg/day) was 31%, the “inhibitory rate of footpad edema (DTH)” value ([2]; 120 μg/day) was 51% and the arthritis score [3] was “significant inhibitory activity”. For the same compound, the body weight loss [3] was “significant inhibitory activity”, the hindlimb swelling [3] was “significant inhibitory activity” and the “increase of anti-type II collagen specific IgG2a antibody value” [3] was “inhibitory tendency”. For the same compound, the IC50 (mouse splenocytes) was 0.54 nM.
